Each compound was assayed against T1, human TPO receptor (hTPOR) (Homo sapiens, UniProt P40238) (assay: Thrombopoietic activity: proliferation of TPO dependent BaF/hTPOR cells (WST-1, absorbance at 450 nm)). Settings: 20 h + 4 h WST-1, ED50 = half concentration of the concentration showing the maximum thrombopoietic activity, Table 1.
T1 construct: expressed in transfected cells; host or cells: BaF-B03 (murine IL-3 dependent cell line)
T1 sequence (P40238 26-635): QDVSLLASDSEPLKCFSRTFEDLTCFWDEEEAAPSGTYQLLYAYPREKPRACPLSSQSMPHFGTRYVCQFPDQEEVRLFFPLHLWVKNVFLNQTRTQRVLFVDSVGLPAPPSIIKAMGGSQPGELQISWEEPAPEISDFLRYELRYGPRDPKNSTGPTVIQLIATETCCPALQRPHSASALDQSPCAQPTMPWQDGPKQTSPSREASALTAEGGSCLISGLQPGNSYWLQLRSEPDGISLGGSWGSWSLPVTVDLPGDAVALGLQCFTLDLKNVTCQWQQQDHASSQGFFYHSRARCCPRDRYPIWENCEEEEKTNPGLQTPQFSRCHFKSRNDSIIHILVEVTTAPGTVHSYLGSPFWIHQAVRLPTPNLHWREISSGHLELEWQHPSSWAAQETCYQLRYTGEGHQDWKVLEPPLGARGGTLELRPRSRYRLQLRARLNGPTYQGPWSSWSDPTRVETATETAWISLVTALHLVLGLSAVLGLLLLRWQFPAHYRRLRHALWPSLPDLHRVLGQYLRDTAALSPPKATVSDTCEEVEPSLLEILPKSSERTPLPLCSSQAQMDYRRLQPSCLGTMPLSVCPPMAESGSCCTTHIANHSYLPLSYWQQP
Type: cell-based
How it was run: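 Proliferation read-out: WST-1 absorbance at 450 nm after 20 h compound exposure plus 4 h reagent, using IL-3-deprived BaF/hTPOR cells (5×10^4 per well) dependent on human TPO receptor signalling. ED50 defined as half the concentration producing maximal activity.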

SMILES | EC50 [nM]
CC(=Cc1c(Cl)cc(C(=O)Nc2nc(-c3cccc(CCCOCCC(C)(C)C)c3F)cs2)cc1Cl)C(=O)O [Compound B85, 3-[2,6-dichloro-4-(4-[3-[3-(3,3-dimethylbutyloxy)propyl]-2-fluorophenyl]thiazol-2-ylcarbamoyl)phenyl]-2-methylacrylic acid] | 0.88
CCC(CC)COCCCc1cccc(-c2csc(NC(=O)c3cc(Cl)c(C=C(C)C(=O)O)c(Cl)c3)n2)c1F [Compound B88, 3-[2,6-dichloro-4-(4-[3-[3-(2-ethylbutyloxy)propyl]-2-fluorophenyl]thiazol-2-ylcarbamoyl)phenyl]-2-methylacrylic acid] | 3.11
CC(=Cc1c(Cl)cc(C(=O)Nc2nc(-c3cccc(CCCOCCC4CCCC4)c3F)cs2)cc1Cl)C(=O)O [Compound B89, 3-[2,6-dichloro-4-(4-[3-[3-(2-cyclopentylethyloxy)propyl]-2-fluorophenyl]thiazol-2-ylcarbamoyl)phenyl]-2-methylacrylic acid] | 1.51
CCCCCOCCCc1cccc(-c2csc(NC(=O)c3cc(Cl)c(C=C(C)C(=O)O)c(Cl)c3)n2)c1F [Compound B90] | 1.15
CCCCCCCCCCC(OC)c1cccc(-c2csc(NC(=O)c3cc(Cl)c(C=C(C)C(=O)O)c(Cl)c3)n2)c1F (stereo not shown) [Compound B91, 3-(2,6-dichloro-4-{4-[2-fluoro-3-(1-methyloxyundecyl)phenyl]thiazol-2-ylcarbamoyl)phenyl]-2-methylacrylic acid] | 1.02
CCCCOCCCc1cccc(-c2csc(NC(=O)c3cc(Cl)c(C=C(C)C(=O)O)c(Cl)c3)n2)c1F [Compound B93, 3-(4-{4-[3-(3-n-butyloxypropyl)-2-fluorophenyl]thiazol-2-ylcarbamoyl}-2,6-dichlorophenyl]-2-methylacrylic acid] | 0.91
CC(=Cc1c(Cl)cc(C(=O)Nc2nc(-c3cccc(CCCOC(C)C)c3F)cs2)cc1Cl)C(=O)O [Compound B94, 3-(2,6-dichloro-4-{4-[2-fluoro-3-(3-isopropyloxypropyl)phenyl]thiazol-2-ylcarbamoyl)phenyl]-2-methylacrylic acid] | 0.97
CCCOCCCc1cccc(-c2csc(NC(=O)c3cc(Cl)c(C=C(C)C(=O)O)c(Cl)c3)n2)c1F [Compound B95, 3-(2,6-dichloro-4-{4-[2-fluoro-3-(3-n-propyloxypropyl)phenyl]thiazol-2-ylcarbamoyl)phenyl]-2-methylacrylic acid] | 0.82
CCCOC(C)c1cccc(-c2csc(NC(=O)c3cc(Cl)c(C=C(C)C(=O)O)c(Cl)c3)n2)c1F (stereo not shown) [Compound B97, 3-(2,6-dichloro-4-{4-[2-fluoro-3-(1-n-propyloxyethyl)phenyl]thiazol-2-ylcarbamoyl)phenyl]-2-methylacrylic acid] | 0.94

Stronger by EC50, values ahead:

EC50 [nM] | SMILES
0.63 | CCCCC(OCCC)c1cccc(-c2csc(NC(=O)c3cc(Cl)c(C=C(C)C(=O)O)c(Cl)c3)n2)c1F (stereo not shown) [Compound B86, 3-(2,6-dichloro-4-{4-[2-fluoro-3-(1-n-propyloxypentyl)phenyl]thiazol-2-ylcarbamoyl}phenyl)-2-methylacrylic acid]
0.62 | CCCCOC(CCCC)c1cccc(-c2csc(NC(=O)c3cc(Cl)c(C=C(C)C(=O)O)c(Cl)c3)n2)c1F (stereo not shown) [Compound B87, 3-(4-{4-[3-(1-n-butyloxypentyl)-2-fluorophenyl]thiazol-2-ylcarbamoyl}-2,6-dichlorophenyl)-2-methylacrylic acid]
0.78 | CCCCCCOCCCc1cccc(-c2csc(NC(=O)c3cc(Cl)c(C=C(C)C(=O)O)c(Cl)c3)n2)c1F [Compound B96, 3-(2,6-dichloro-4-{4-[2-fluoro-3-(3-n-hexyloxypropyl)phenyl]thiazol-2-ylcarbamoyl)phenyl]-2-methylacrylic acid]
0.73 | CCCCOC(C)c1cccc(-c2csc(NC(=O)c3cc(Cl)c(C=C(C)C(=O)O)c(Cl)c3)n2)c1F (stereo not shown) [Compound B98, 3-(4-{4-[3-(1-n-butyloxyethyl)-2-fluorophenyl]thiazol-2-ylcarbamoyl)-2,6-dichlorophenyl]-2-methylacrylic acid]

Reference: patent publication US7601746B2 (Shionogi & Co., Ltd., priority 2003, dated 2009)
